Laboratory results from patent US10131663B2, “Chemical compounds” (AstraZeneca AB, priority 2016, dated 2018).
In brackets after ≈: the same amount, converted by molar mass.

Tests used:
[1] = molecular target: recombinant human Estrogen Receptor alpha ligand binding domain (ER alpha-LBD (GST)) (Homo sapiens (Human), UniProt P03372); experiment: ERα binding assay (LanthaScreen TR-FRET competition); details: TR-FRET, displacement of Fluormone ES2
How it was run: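 Competition binding to GST-tagged human ERα ligand-binding domain, read by LanthaScreen TR-FRET: Tb-anti-GST antibody labels the receptor and compounds displace a fluorescent tracer, lowering the signal. IC50 was taken from dose-response curve fitting.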

[2] = molecular target: T1, Estrogen Receptor (ERα) in MCF-7 cells (Homo sapiens (Human), UniProt P03372); experiment: MCF-7 ER down-regulation assay (immuno-fluorescence); type: cell-based
T1 sequence (P03372 whole entry): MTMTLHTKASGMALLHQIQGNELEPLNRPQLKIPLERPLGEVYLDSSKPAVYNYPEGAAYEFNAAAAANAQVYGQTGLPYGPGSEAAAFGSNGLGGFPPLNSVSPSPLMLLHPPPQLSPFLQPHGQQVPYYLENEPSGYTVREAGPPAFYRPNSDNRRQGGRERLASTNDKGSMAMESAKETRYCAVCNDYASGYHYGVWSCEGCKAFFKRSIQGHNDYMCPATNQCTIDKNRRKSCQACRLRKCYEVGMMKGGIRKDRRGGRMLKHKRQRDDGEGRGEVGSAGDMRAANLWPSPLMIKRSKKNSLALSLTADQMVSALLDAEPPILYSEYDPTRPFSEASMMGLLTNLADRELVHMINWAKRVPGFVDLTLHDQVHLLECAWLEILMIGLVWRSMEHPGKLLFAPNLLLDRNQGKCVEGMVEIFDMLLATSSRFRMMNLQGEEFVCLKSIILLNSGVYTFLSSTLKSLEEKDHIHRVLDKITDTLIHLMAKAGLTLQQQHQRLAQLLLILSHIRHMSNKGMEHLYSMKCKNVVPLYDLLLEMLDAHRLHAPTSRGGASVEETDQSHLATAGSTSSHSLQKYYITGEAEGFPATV
How it was run: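 Compounds dispensed acoustically from DMSO stocks onto MCF-7 cells; cells fixed 20 min at room temperature, then automated immunostaining for ERα with overnight incubation at 4° C. Read-out is mean total ER fluorescence intensity normalized to cell number (intensity per cell), with curve fitting for concentration-response values.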

[3] = molecular target: estrogen receptor (ERα) in CAMA-1 cells (Homo sapiens (Human), UniProt P03372); experiment: Western blotting assay, ER down-regulation in CAMA-1; type: cell-based; details: 100 nM compound, 48 h, normalised to 100 nM fulvestrant
Sequence of estrogen receptor (ERα) in CAMA-1 cells (P03372 whole entry): as above
Method: (§1) Cells were incubated with compounds (100 nM) or vehicle control (0.1% DMSO) for 48 h at 37° C., 5% CO2 before washing once with PBS and lysing with 80 μl lysis buffer (25 mM Tris/HCl, 3 mM EDTA, 3 mM EGTA, 50 mM NaF, 2 mM sodium orthovanadate, 0.27 M sucrose, 10 mM β-glycerophosphate, 5 mM sodium pyrophosphate, 0.5% TritonX-100, pH 6.8) on ice.
(§2) Samples were boiled for 10 min at 95° C. and then frozen at −20° C. until ready for use.
(§3) The blot was stained with Ponceau S (P7170, Sigma) and cut according to appropriate molecular weight markers.
(§4) Membranes were blocked for 1 hour at room temp in 5% Marvel (w/v) in phosphate-buffered saline containing 0.05% Tween™ 20 (PBS/Tween). Blots were then incubated with anti-ERα (SP1) rabbit monoclonal antibody (Thermofisher) diluted 1:1000 at 4° C. overnight (with gentle shaking) followed by several washes with PBS/Tween. […] All antibodies were made up in 5% Marvel (w/v) in PBS/Tween.
(§5) Down-regulation of the ERα receptor was normalised to the vehicle control (0% down-regulation) and the 100 nM fulvestrant control (100% down-regulation) run within the same gel.

[4] = molecular target: T1, Estrogen Receptor (ERα) in MCF-7 cells; experiment: Western blotting assay, ER down-regulation in MCF-7; type: cell-based; details: 100 nM compound, 48 h, normalised to 100 nM fulvestrant
Method: as §1, §2, §3, §4, §5

[5] = log D (shake flask, 1-octanol/aqueous buffer); type: physicochemical
How it was run: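 Distribution between 1-octanol and aqueous buffer at pH 7.4 was measured by shake flask, with compounds run in mixtures of ten. Relative concentrations in each phase were quantified by UPLC with quantitative MS. Caffeine served as a low-log D QC sample in all runs.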

[6] = Thermodynamic solubility (shake-flask); type: physicochemical; details: aqueous phosphate buffer, 25 °C, pH 7.4, aqueous buffer, thermodynamic from solid, aqueous phosphate buffer pH 7.4, 24 hours
How it was run: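 Shake-flask method starting from 10 mM DMSO stocks, which are dried before use. Residue equilibrated 24 h at 25° C. in aqueous phosphate buffer, pH 7.4. Dissolved fraction separated and quantified by UPLC/MS/MS, with QC samples in each run.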

[7] = Human plasma protein binding (equilibrium dialysis); type: in vitro ADME; details: dialysis 18 hours
How it was run: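 Fraction unbound (fu %) in human plasma, from LC/MSMS of plasma and buffer sides (7-point plasma calibration) after 18 h rapid equilibrium dialysis. Single determinations, with compounds pooled up to 10 per plasma pool.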

[8] = Human Caco-2 bidirectional permeability A to B and B to A; type: in vitro ADME; details: for Papp at 2 h: Caco-2, 2 hours, pH 7.4; for efflux ratio at 2 h: Caco-2, pH 7.4
Method: An automated assay was used to determine the bidirectional permeability (efflux and uptake) of compounds in Caco-2 cells carried out over 2 hours at pH 7.4.
The efflux ratio (ER) can be determined using the following equation: ER=Papp(B-A)/Papp(A-B) Where Papp (B-A) indicates the apparent permeability coefficient in basolateral to apical direction, and Papp (A-B) indicates the apparent permeability coefficient in apical to basolateral direction. Human Caco-2 Passive Permeability A to B Papp

[9] = 1-octanol/aqueous buffer, pH 7.4, pH 7.4, 1-octanol/aqueous buffer
[10] = pH 7.4, 1-octanol/aqueous buffer

Sequence of recombinant human Estrogen Receptor alpha ligand binding domain (ER alpha-LBD (GST)) (P03372 307-554): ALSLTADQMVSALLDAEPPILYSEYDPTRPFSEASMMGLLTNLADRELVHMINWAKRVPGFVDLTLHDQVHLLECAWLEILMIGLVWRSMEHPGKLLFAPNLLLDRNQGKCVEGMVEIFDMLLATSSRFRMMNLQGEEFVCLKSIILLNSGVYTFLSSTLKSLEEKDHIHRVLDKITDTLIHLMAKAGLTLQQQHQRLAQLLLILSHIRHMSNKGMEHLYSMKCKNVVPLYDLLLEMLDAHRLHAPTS

For `C[C@@H]1Cc2c(ccc3[nH]ncc23)[C@@H](c2ccc(NC3CN(CCCF)C3)cn2)N1CC(F)F` [Example 25, 6-((6S,8R)-7-(2,2-difluoroethyl)-8-methyl-6,7,8,9-tetrahydro-3H-pyrazolo[4,3-f]isoquinolin-6-yl)-N-(1-(3-fluoropropyl)azetidin-3-yl)pyridin-3-amine], the IC50 [1] was 4.1 nM, the IC50 [2] was 0.33 nM and the “CAMA1 Western % ER deg vs Fv” value [3] was 96%. For the same compound, the “MCF7 Western % ER deg vs Fv” value [4] was 98%, the logD [5, 9] was 2.5 and the solubility at 24 h [6] was 964 µM (≈ 442 µg/mL). For the same compound, the “Human plasma protein binding (% free)” value [7] was 40 % free, the Papp at 2 h [8] was 5 ×10⁻⁶ cm/s and the efflux ratio at 2 h [8] was 7.4.

With `C[C@@H]1Cc2c(ccc3[nH]ncc23)[C@@H](c2ccc(NC3CN(CCCF)C3)cn2)N1CC(F)(F)CO` [Example 16, 2,2-difluoro-3-((6S,8R)-6-(5-((1-(3-fluoropropyl)azetidin-3-yl)amino)pyridin-2-yl)-8-methyl-3,6,8,9-tetrahydro-7H-pyrazolo[4,3-f]isoquinolin-7-yl)propan-1-ol] the IC50 [1] was 6.9 nM, the IC50 [2] was 0.54 nM and the “CAMA1 Western % ER deg vs Fv” value [3] was 105%. For the same compound, the “MCF7 Western % ER deg vs Fv” value [4] was 104%, the logD [5, 10] was 2 and the solubility at 24 h [6] was 982 µM (≈ 480 µg/mL). The “Human plasma protein binding (% free)” value [7] was 64 % free, the Papp at 2 h [8] was 1.6 ×10⁻⁶ cm/s and the efflux ratio at 2 h [8] was 9.7.

For `COc1cc(NC2CN(CCCF)C2)ccc1[C@@H]1c2ccc3[nH]ncc3c2C[C@@H](C)N1CC(F)F` [Example 21, N-(4-((6S,8R)-7-(2,2-difluoroethyl)-8-methyl-6,7,8,9-tetrahydro-3H-pyrazolo[4,3-f]isoquinolin-6-yl)-3-methoxyphenyl)-1-(3-fluoropropyl)azetidin-3-amine], the IC50 [1] was 2.1 nM, the IC50 [2] was 0.098 nM and the “CAMA1 Western % ER deg vs Fv” value [3] was 101%. The “MCF7 Western % ER deg vs Fv” value [4] was 99%, the logD [5, 9] was 3.1 and the solubility at 24 h [6] was 634 µM (≈ 309 µg/mL). For the same compound, the “Human plasma protein binding (% free)” value [7] was 12 % free, the Papp at 2 h [8] was 4 ×10⁻⁶ cm/s and the efflux ratio at 2 h [8] was 1.6.

For `COCC(F)(F)CN1[C@H](c2ccc(NC3CN(CCCF)C3)cn2)c2ccc3[nH]ncc3c2C[C@H]1C` [Example 2, 6-((6S,8R)-7-(2,2-difluoro-3-methoxypropyl)-8-methyl-6,7,8,9-tetrahydro-3H-pyrazolo[4,3-f]isoquinolin-6-yl)-N-(1-(3-fluoropropyl)azetidin-3-yl)pyridin-3-amine], the IC50 [1] was 2.8 nM, the IC50 [2] was 3.1 nM and the “CAMA1 Western % ER deg vs Fv” value [3] was 95%. For the same compound, the “MCF7 Western % ER deg vs Fv” value [4] was 93%, the logD [5, 9] was 2.6 and the solubility at 24 h [6] was 217 µM (≈ 109 µg/mL). The “Human plasma protein binding (% free)” value [7] was 28 % free, the Papp at 2 h [8] was 3.9 ×10⁻⁶ cm/s and the efflux ratio at 2 h [8] was 8.4.

For `C[C@@H]1Cc2c(ccc3[nH]ncc23)[C@@H](c2ccc(NC3CN(CCCF)C3)cc2)N1CC(F)(F)F` [Example 27, 1-(3-Fluoropropyl)-N-(4-((6R,8R)-8-methyl-7-(2,2,2-trifluoroethyl)-6,7,8,9-tetrahydro-3H-pyrazolo[4,3-f]isoquinolin-6-yl)phenyl)azetidin-3-amine], the IC50 [1] was 0.81 nM, the IC50 [2] was 0.05 nM and the “CAMA1 Western % ER deg vs Fv” value [3] was 108%. For the same compound, the “MCF7 Western % ER deg vs Fv” value [4] was 110%, the logD [5, 9] was 3.8 and the solubility at 24 h [6] was 229 µM (≈ 109 µg/mL). For the same compound, the “Human plasma protein binding (% free)” value [7] was 3.8 % free, the Papp at 2 h [8] was 5.4 ×10⁻⁶ cm/s and the efflux ratio at 2 h [8] was 0.9.

In the case of `C[C@@H]1Cc2c(ccc3[nH]ncc23)[C@@H](c2ccc(NC3CN(CCCF)C3)cn2)N1CC(F)(F)F` [Example 17, N-(1-(3-fluoropropyl)azetidin-3-yl)-6-((6S,8R)-8-methyl-7-(2,2,2-trifluoroethyl)-6,7,8,9-tetrahydro-3H-pyrazolo[4,3-f]isoquinolin-6-yl)pyridin-3-amine], the “CAMA1 Western % ER deg vs Fv” value [3] is reported as 96%, the “MCF7 Western % ER deg vs Fv” value [4] is reported as 92% and the logD [5, 9] is reported as 2.9. The solubility at 24 h [6] was 833 µM (≈ 397 µg/mL), the “Human plasma protein binding (% free)” value [7] was 23 % free and the Papp at 2 h [8] was 4.7 ×10⁻⁶ cm/s.

With `COc1cc(NC2CN(CCCF)C2)ccc1[C@@H]1c2ccc3[nH]ncc3c2C[C@@H](C)N1CC(C)(F)F` [Example 19, N-(4-((6S,8R)-7-(2,2-difluoropropyl)-8-methyl-6,7,8,9-tetrahydro-3H-pyrazolo[4,3-f]isoquinolin-6-yl)-3-methoxyphenyl)-1-(3-fluoropropyl)azetidin-3-amine] the IC50 [1] was 2.6 nM, the IC50 [2] was 0.063 nM and the “CAMA1 Western % ER deg vs Fv” value [3] was 94%. For the same compound, the “MCF7 Western % ER deg vs Fv” value [4] was 92%, the logD [5, 10] was 3.7 and the solubility at 24 h [6] was 152 µM (≈ 76.2 µg/mL). For the same compound, the “Human plasma protein binding (% free)” value [7] was 4.3 % free, the Papp at 2 h [8] was 4.2 ×10⁻⁶ cm/s and the efflux ratio at 2 h [8] was 2.6.

In the case of `C[C@@H]1Cc2c(ccc3[nH]ncc23)[C@@H](c2ncc(NC3CN(CCCF)C3)cc2F)N1CC1(F)CC1` [Example 18, 5-fluoro-6-((6S,8R)-7-((1-fluorocyclopropyl)methyl)-8-methyl-6,7,8,9-tetrahydro-3H-pyrazolo[4,3-f]isoquinolin-6-yl)-N-(1-(3-fluoropropyl)azetidin-3-yl)pyridin-3-amine], the IC50 [1] is reported as 29 nM, the IC50 [2] is reported as 0.42 nM and the “CAMA1 Western % ER deg vs Fv” value [3] is reported as 95%. The “MCF7 Western % ER deg vs Fv” value [4] was 103%, the logD [5, 9] was 2.6 and the solubility at 24 h [6] was 910 µM (≈ 441 µg/mL). For the same compound, the “Human plasma protein binding (% free)” value [7] was 34 % free.

For `C[C@@H]1Cc2c(ccc3[nH]ncc23)[C@@H](c2ccc(NC3CN(CCCF)C3)cn2)N1CC1(F)CC1` [Example 3, 6-((6S,8R)-7-((1-fluorocyclopropyl)methyl)-8-methyl-6,7,8,9-tetrahydro-3H-pyrazolo[4,3-f]isoquinolin-6-yl)-N-(1-(3-fluoropropyl)azetidin-3-yl)pyridin-3-amine], the IC50 [1] was 6.5 nM, the IC50 [2] was 0.64 nM and the “CAMA1 Western % ER deg vs Fv” value [3] was 102%. The “MCF7 Western % ER deg vs Fv” value [4] was 90%, the logD [5, 10] was 2.5 and the solubility at 24 h [6] was over 941 µM. The “Human plasma protein binding (% free)” value [7] was 26 % free, the Papp at 2 h [8] was 2.3 ×10⁻⁶ cm/s and the efflux ratio at 2 h [8] was 9.2.

For `COCC(F)(F)CN1[C@H](c2ccc(NC3CN(CCCF)C3)cc2OC)c2ccc3[nH]ncc3c2C[C@H]1C` [Example 1, N-(4-((6S,8R)-7-(2,2-difluoro-3-methoxypropyl)-8-methyl-6,7,8,9-tetrahydro-3H-pyrazolo[4,3-f]isoquinolin-6-yl)-3-methoxyphenyl)-1-(3-fluoropropyl)azetidin-3-amine], the IC50 [1] was 3.7 nM, the IC50 [2] was 0.1 nM and the “CAMA1 Western % ER deg vs Fv” value [3] was 92%. For the same compound, the “MCF7 Western % ER deg vs Fv” value [4] was 91%, the logD [5, 9] was 3.4 and the solubility at 24 h [6] was 379 µM (≈ 201 µg/mL). The “Human plasma protein binding (% free)” value [7] was 8.3 % free, the Papp at 2 h [8] was 0.9 ×10⁻⁶ cm/s and the efflux ratio at 2 h [8] was 9.4.

With `C[C@@H]1Cc2c(ccc3[nH]ncc23)[C@@H](c2ccc(NC3CN(CCCF)C3)cc2)N1CC(F)F` [Example 48, N-(4-((6R,8R)-7-(2,2-difluoroethyl)-8-methyl-6,7,8,9-tetrahydro-3H-pyrazolo[4,3-f]isoquinolin-6-yl)phenyl)-1-(3-fluoropropyl)azetidin-3-amine] the IC50 [1] was 1.5 nM, the IC50 [2] was 0.078 nM and the “CAMA1 Western % ER deg vs Fv” value [3] was 94%. The “MCF7 Western % ER deg vs Fv” value [4] was 93%, the logD [5, 9] was 3.1 and the solubility at 24 h [6] was 582 µM (≈ 266 µg/mL). The “Human plasma protein binding (% free)” value [7] was 10 % free.
